“And” between values parts separate entries of the source, which are not always exact repeats. Equal values may be shown once.
Experiments:
[1] = in vivo; cited from earlier work
[2] = human, in vivo
[3] = system: schizophrenia patients; conditions: human, in vivo
[4] = human, in vivo; remark: listed apart in the source
[5] = human, in vivo; remark: listed apart in the source
[6] = system: patients (Met allele carriers, Val/Val); parameters: species or system human; conditions: in vivo
[7] = system: patients (Met allele carriers, Val/Val); conditions: in vivo; cited from earlier work

For `CCO` [Ethanol], the “effect on circulating proline levels” value [1] is listed as “increases”.

With `CCCC(CCC)C(=O)O` [VPA, 2-propylpentanoic acid] the “fasting plasma proline, mean ± SD” value [2] was 299.29±94.76, the “difference in SANS total score, Val/Val versus Val/Met and Met/Met (regression coefficient)” value [3] was −12.17 and the “β (95% CI), bivariate association of treatment with total SANS score” value [3] was −0.578 (−7.157, 6.001). For the same molecule, the “fasting plasma proline versus patients who did not receive the drug” value [4] was “significantly higher”, the “fasting L-serine level” value [5] was 117 µM and the fasting glycine level [5] was 361 µM. For the same molecule, the “patients showing improvement in negative symptoms after treatment onset” value [6] was 2 out of 9 and 5 out of 7, the “effect on circulating proline” value [1] was “upregulates” and the “blood level considered the lower end of the therapeutic range” value [7] was 50 µg/mL.
